Source: ChEMBL document CHEMBL1201862, “PubChem BioAssay data set” (2004)
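Briefly, cells in 96-well plates were exposed to five compound concentrations for 48 h, and endpoints were estimated by linear interpolation. At the GI50, growth is halved.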 Activity calls are given as the source filed them. Rule as the data show it: active = GI50 up to about 1.1 µM and inactive = higher.

Tests used:
Test in all cases: growth of human tumour cells (NCI), 48 h
[1] = tested on: A549
[2] = tested on: K562
[3] = tested on: DMS-114
[4] = tested on: HCT-15
[5] = tested on: HL-60
[6] = tested on: OVCAR-8
[7] = tested on: CCRF-CEM
[8] = tested on: U-251
[9] = tested on: SF-539
[10] = tested on: CAKI-1
[11] = tested on: NCI-H522
[12] = tested on: NCI/ADR-RES
[13] = tested on: SK-MEL-28
[14] = tested on: SNB-19
[15] = tested on: LOX IMVI
[16] = tested on: COLO 205
[17] = tested on: Malme-3M
[18] = tested on: NCI-H460
[19] = tested on: SF-295
[20] = tested on: SK-MEL-2
[21] = tested on: HOP-62
[22] = tested on: IGROV-1
[23] = tested on: DLD-1
[24] = tested on: OVCAR-5
[25] = tested on: SN12C
[26] = tested on: UACC-62
[27] = tested on: HCC 2998
[28] = tested on: HCT-116
[29] = tested on: HT-29
[30] = tested on: KM-20L2
[31] = tested on: HOP-92
[32] = tested on: MOLT-4
[33] = tested on: NCI-H226
[34] = tested on: SF-268
[35] = tested on: RXF 393
[36] = tested on: MCF7
[37] = tested on: A498
[38] = tested on: SNB-75
[39] = tested on: SW-620
[40] = tested on: SNB-78
[41] = tested on: KM12
[42] = tested on: UACC-257
[43] = tested on: M19-MEL
[44] = tested on: HOP-18
[45] = tested on: XF498
[46] = tested on: RPMI-8226
[47] = tested on: DMS-273
[48] = tested on: UO-31
[49] = tested on: OVCAR-3
[50] = tested on: SK-MEL-5
[51] = tested on: SK-OV-3
[52] = tested on: OVCAR-4
[53] = tested on: NCI-H23
[54] = tested on: EKVX
[55] = tested on: TK-10
[56] = tested on: 786-0
[57] = tested on: SR
[58] = tested on: LXFL 529
[59] = tested on: ACHN
[60] = tested on: M14

In the case of `CN(C)CCNC(=O)c1cccc2ccc(-c3ccc(F)cc3)nc12`, the GI50 [1] is reported as 3.13 µM (inactive), the GI50 [2] is reported as 2.93 µM (inactive) and the GI50 [3] is reported as 5.48 µM (inactive). For the same compound, the GI50 [4] was 3.85 µM, the GI50 [5] was 2.29 µM (inactive) and the GI50 [6] was 3.3 µM (inactive). The GI50 [7] was 2.86 µM (inactive), the GI50 [8] was 6.19 µM (inactive) and the GI50 [9] was 4.06 µM (inactive). The GI50 [10] was 2.69 µM (inactive), the GI50 [11] was 3.91 µM (inactive) and the GI50 [12] was 3.18 µM (inactive). For the same compound, the GI50 [13] was 7.06 µM (inactive), the GI50 [14] was 6.87 µM (inactive) and the GI50 [15] was 3.32 µM (inactive). For the same compound, the GI50 [16] was 2.43 µM (inactive), the GI50 [17] was 4.9 µM (inactive) and the GI50 [18] was 2.86 µM (inactive). For the same compound, the GI50 [19] was 5.7 µM (inactive), the GI50 [20] was 9.18 µM (inactive) and the GI50 [21] was 11.7 µM (inactive). The GI50 [22] was 4.16 µM (inactive), the GI50 [23] was 3.64 µM (inactive) and the GI50 [24] was 7.55 µM (inactive). The GI50 [25] was 4.85 µM (inactive), the GI50 [26] was 3.95 µM (inactive) and the GI50 [27] was 6.46 µM (inactive). The GI50 [28] was 3.03 µM (inactive), the GI50 [29] was 3.3 µM (inactive) and the GI50 [30] was 4.22 µM (inactive). For the same compound, the GI50 [31] was 4.25 µM (inactive), the GI50 [32] was 1.94 µM (inactive) and the GI50 [33] was 3.53 µM (inactive). For the same compound, the GI50 [34] was 5.27 µM (inactive), the GI50 [35] was 7.38 µM (inactive) and the GI50 [36] was 3.56 µM (inactive). For the same compound, the GI50 [37] was 7.1 µM (inactive), the GI50 [38] was 6.95 µM (inactive) and the GI50 [39] was 3.08 µM (inactive). For the same compound, the GI50 [40] was 8.85 µM (inactive), the GI50 [41] was 6.67 µM (inactive) and the GI50 [42] was 5.51 µM (inactive). For the same compound, the GI50 [43] was 4.33 µM (inactive), the GI50 [44] was 17.4 µM (inactive) and the GI50 [45] was 2.94 µM (inactive). For the same compound, the GI50 [46] was 3.31 µM (inactive), the GI50 [47] was 2.82 µM (inactive) and the GI50 [48] was 2.61 µM (inactive). For the same compound, the GI50 [49] was 6.89 µM (inactive), the GI50 [50] was 3.34 µM (inactive) and the GI50 [51] was 7.62 µM (inactive). The GI50 [52] was 4.38 µM (inactive) and the GI50 [53] was 4.47 µM (inactive).
`O=C(NN1C(=O)CS(=O)(=O)C1c1ccc(Cl)c(Cl)c1)c1ccncc1` (stereo not given) was tested, and the GI50 [1] was > 92.3 µM (inactive), the GI50 [2] was > 54.2 µM (inactive) and the GI50 [3] was 61.2 µM (inactive). For the same compound, the GI50 [4] was > 100 µM, the GI50 [5] was > 43 µM (inactive) and the GI50 [6] was > 100 µM (inactive). The GI50 [7] was 42.1 µM (inactive), the GI50 [8] was > 100 µM (inactive) and the GI50 [9] was > 100 µM (inactive). For the same compound, the GI50 [10] was > 100 µM (inactive), the GI50 [11] was 66.1 µM (inactive) and the GI50 [12] was > 92.7 µM (inactive). For the same compound, the GI50 [13] was > 100 µM (inactive), the GI50 [14] was > 92.3 µM (inactive) and the GI50 [15] was > 95.9 µM (inactive). The GI50 [16] was > 100 µM (inactive), the GI50 [17] was > 100 µM (inactive) and the GI50 [18] was > 100 µM (inactive). The GI50 [19] was > 87.5 µM (inactive), the GI50 [20] was > 100 µM (inactive) and the GI50 [21] was > 100 µM (inactive). The GI50 [22] was > 100 µM (inactive), the GI50 [23] was > 100 µM (inactive) and the GI50 [24] was > 62.2 µM (inactive). The GI50 [25] was > 100 µM (inactive), the GI50 [26] was > 100 µM (inactive) and the GI50 [27] was > 100 µM (inactive). For the same compound, the GI50 [28] was > 87.7 µM (inactive), the GI50 [29] was > 71.3 µM (inactive) and the GI50 [30] was > 91.4 µM (inactive). The GI50 [31] was > 100 µM (inactive), the GI50 [32] was > 40.3 µM (inactive) and the GI50 [33] was > 100 µM (inactive). The GI50 [34] was > 81.5 µM (inactive), the GI50 [35] was > 69 µM (inactive) and the GI50 [36] was 98.2 µM (inactive). The GI50 [37] was > 90.4 µM (inactive), the GI50 [38] was 54.2 µM (inactive) and the GI50 [39] was > 100 µM (inactive). The GI50 [40] was > 93.1 µM (inactive), the GI50 [41] was > 100 µM (inactive) and the GI50 [42] was > 100 µM (inactive). The GI50 [43] was > 100 µM (inactive), the GI50 [44] was > 100 µM (inactive) and the GI50 [45] was > 100 µM (inactive). For the same compound, the GI50 [46] was > 41.7 µM (inactive), the GI50 [47] was > 31.6 µM (inactive) and the GI50 [48] was > 100 µM (inactive). The GI50 [49] was > 90.8 µM (inactive), the GI50 [50] was > 94.2 µM (inactive) and the GI50 [51] was 57.5 µM (inactive). For the same compound, the GI50 [52] was > 100 µM (inactive), the GI50 [53] was > 100 µM (inactive) and the GI50 [54] was > 74 µM (inactive).
For `O=C(CSc1nnc(Cc2ccccc2)o1)Nc1ccc(Cl)cc1[N+](=O)[O-]`, the GI50 [1] was 18.9 µM (inactive), the GI50 [55] was 17.1 µM (inactive) and the GI50 [2] was 25.6 µM (inactive). For the same compound, the GI50 [4] was 16.5 µM, the GI50 [5] was 24.7 µM (inactive) and the GI50 [6] was 29.8 µM (inactive). For the same compound, the GI50 [7] was 15.6 µM (inactive), the GI50 [8] was 19.5 µM (inactive) and the GI50 [11] was 3.17 µM (inactive). The GI50 [56] was 16.5 µM (inactive), the GI50 [13] was 15.5 µM (inactive) and the GI50 [14] was 14.4 µM (inactive). For the same compound, the GI50 [15] was 13.1 µM (inactive), the GI50 [16] was 21.9 µM (inactive) and the GI50 [17] was 16.4 µM (inactive). The GI50 [57] was 26.2 µM (inactive), the GI50 [18] was > 10 µM (inactive) and the GI50 [58] was 17.1 µM (inactive). The GI50 [59] was 12.6 µM (inactive), the GI50 [19] was 18.7 µM (inactive) and the GI50 [20] was 15.9 µM (inactive). The GI50 [21] was 17.4 µM (inactive), the GI50 [25] was 17.5 µM (inactive) and the GI50 [26] was 14.2 µM (inactive). The GI50 [28] was 14 µM (inactive), the GI50 [29] was 22.3 µM (inactive) and the GI50 [30] was 22.5 µM (inactive). The GI50 [32] was 18.9 µM (inactive), the GI50 [33] was 21.2 µM (inactive) and the GI50 [34] was 21.5 µM (inactive). For the same compound, the GI50 [35] was 19.2 µM (inactive), the GI50 [60] was 16.5 µM (inactive) and the GI50 [38] was 18.9 µM (inactive). For the same compound, the GI50 [39] was 25.1 µM (inactive), the GI50 [40] was 20 µM (inactive) and the GI50 [41] was > 10 µM (inactive). The GI50 [42] was 19.9 µM (inactive), the GI50 [43] was 17 µM (inactive) and the GI50 [44] was 14.7 µM (inactive). The GI50 [45] was 17.5 µM (inactive), the GI50 [46] was 17.9 µM (inactive) and the GI50 [47] was 19.7 µM (inactive). For the same compound, the GI50 [48] was 18.4 µM (inactive), the GI50 [50] was 16.9 µM (inactive) and the GI50 [51] was 34.5 µM (inactive). For the same compound, the GI50 [52] was 18.8 µM (inactive), the GI50 [53] was 17.4 µM (inactive) and the GI50 [54] was 20.3 µM (inactive).
